Experiments:
Conditions in all cases: 72 h
[1] = tested on: CAL-148
In short: (§1)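 The reported EC50 was fitted from percent-inhibition dose-response curves and censored at the highest concentration. Breast cancer cell lines (20 µl suspension) were added to 384-well plates containing compound in 5 µl medium and incubated 72 h, and viability was read with 2.5 µl CellTiter-Blue over 2 h at 37 °C at 560/590 nm. Each plate was normalised to vehicle and a positive kill control and checked by Z'-factor, and rows with zero drug sensitivity score were dropped.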

[2] = tested on: CAL-51
In short: as §1

[3] = tested on: CAL-85-1
In short: as §1

[4] = tested on: DU-4475
In short: as §1

[5] = tested on: HDQ-P1
In short: as §1

[6] = tested on: MDA-MB-453
In short: as §1

[7] = tested on: BT-474
In short: as §1

[8] = tested on: BT-549
In short: as §1

[9] = tested on: CAL-120
In short: as §1

[10] = tested on: HCC1143
In short: as §1

[11] = tested on: HCC1599
In short: as §1

[12] = tested on: HCC1937
In short: as §1

[13] = tested on: Hs578T
In short: as §1

[14] = tested on: MDA-MB-231
In short: as §1

[15] = tested on: MDA-MB-436
In short: as §1

[16] = tested on: MDA-MB-468
In short: as §1

[17] = tested on: MFM-223
In short: as §1

[18] = tested on: MFM-223; remark: listed apart in the source
In short: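 EC50 was fitted from dose-response curves and censored at the highest concentration tested. To build those curves, breast cancer cell lines (20 µl suspension) were seeded into 384-well plates containing compound at 5 concentrations in 10-fold steps over a compound-specific 10,000-fold range and incubated for 72 h. Readouts were CellTox Green fluorescence (485/520 nm) for cell death and then CellTiter-Glo luminescence for viability, with each plate normalised to 0.1 % DMSO and a positive kill control.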

[19] = tested on: Hs578T; remark: listed apart in the source
Procedure: (§2)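 Drug sensitivity and resistance testing (DSRT) of breast cancer cell lines in 384-well plates, 5 concentrations in 10-fold dilutions over a compound-specific 10,000-fold range. After 72 h, cytotoxicity was read by CellTox Green fluorescence and viability by CellTiter-Glo luminescence (multiplexed), normalised to DMSO and benzethonium chloride controls. EC50 is the inflection point of the fitted dose-response curve (bottom asymptote free, so it can be relative for partial curves) and is censored at the highest tested concentration. Rows with DSS 0 (no meaningful response) were excluded.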

[20] = tested on: SK-BR-3
In short: as §1

[21] = tested on: CAL-85-1; remark: listed apart in the source
Procedure: as §2

O=C(/C=C/c1cccnc1)NCCCCC1CCN(C(=O)c2ccccc2)CC1 [FK-866]
EC50, CellTiter-Blue viability [1]: 34.4 nM | EC50, CellTiter-Blue viability [2]: 12.6 nM | EC50, CellTiter-Blue viability [3]: 25.7 nM | EC50, CellTiter-Blue viability [4]: 20.1 nM | EC50, CellTiter-Blue viability [5]: 21.3 nM | EC50, CellTiter-Blue viability [6]: 1.68 nM | EC50, CellTiter-Blue viability [7]: 17.5 nM | EC50, CellTiter-Blue viability [8]: 6.08 nM | EC50, CellTiter-Blue viability [9]: 8.66 nM | EC50, CellTiter-Blue viability [10]: 4.08 nM | EC50, CellTiter-Blue viability [11]: 13.9 nM | EC50, CellTiter-Blue viability [12]: 80.3 nM | EC50, CellTiter-Blue viability [13]: 3.75 nM | EC50, CellTiter-Blue viability [14]: 20.1 nM | EC50, CellTiter-Blue viability [15]: 5.08 nM | EC50, CellTiter-Blue viability [16]: 3.01 nM | EC50, CellTiter-Blue viability [17]: 0.00405 µM

O=C(O)C1(C(=O)O)CCC1.[NH2-].[NH2-].[Pt+2] [Carboplatin]
EC50, CellTiter-Blue viability [1]: 5150 nM | EC50, CellTiter-Blue viability [2]: 9460 nM | EC50, CellTiter-Blue viability [6]: 7350 nM | EC50, CellTiter-Blue viability [17]: 9.69 µM

Oc1ncc(N(CCCl)CCCl)c(O)n1 [Uracil mustard]
EC50, CellTiter-Blue viability [12]: 962 nM

COc1cc2c(Oc3ccc4[nH]c(C)cc4c3F)ncnc2cc1OCCCN1CCCC1 [Cediranib]
EC50, CellTiter-Glo [18]: 338 nM

N#Cc1ccc(C(c2ccc(C#N)cc2)n2cncn2)cc1 [Letrozole]
EC50, CellTiter-Blue viability [11]: 311 nM | EC50, CellTiter-Blue viability [12]: > 10000 nM | EC50, CellTox Green [19]: > 10 µM

NCCCNCCSP(=O)(O)O [Amifostine]
EC50, CellTiter-Blue viability [11]: 224 nM

Cc1cnc(NC(=O)Nc2cc(Br)c(C)cc2OC[C@@H]2CNCCO2)cn1
EC50, CellTiter-Blue viability [11]: 221 nM | EC50, CellTiter-Blue viability [12]: 121 nM | EC50, CellTiter-Blue viability [13]: 745 nM | EC50, CellTiter-Blue viability [15]: 98.7 nM | EC50, CellTiter-Blue viability [20]: 715 nM

O=C(O)CCCCC(CCSCc1ccccc1)SCc1ccccc1 (stereo not drawn) [CPI-613]
EC50, CellTox Green [21]: > 10 µM

CC(=O)Nc1cccc(-n2c(=O)n(C3CC3)c(=O)c3c(Nc4ccc(I)cc4F)n(C)c(=O)c(C)c32)c1
EC50, CellTiter-Blue viability [2]: 9.94 nM | EC50, CellTiter-Blue viability [3]: 19.4 nM | EC50, CellTiter-Blue viability [4]: 0.91 nM | EC50, CellTiter-Blue viability [5]: 4.17 nM | EC50, CellTiter-Blue viability [6]: 20.2 nM | EC50, CellTiter-Blue viability [9]: 20.6 nM | EC50, CellTiter-Blue viability [10]: 2.92 nM | EC50, CellTiter-Blue viability [11]: 31.5 nM | EC50, CellTiter-Blue viability [14]: 1.8 nM | EC50, CellTiter-Blue viability [16]: 35.7 nM

Reference: the supplement of paper PMC4862054
